± gives the uncertainty stated by the source.
Test system: ozone
Assay: apparent second-order rate constant for reaction with ozone (kapp,O3) (M-1 s-1); higher = faster oxidation by ozone
Settings: pH 7; temperature: 22 C; OH radical scavenger: tBuOH 80 mM; phosphate 4 mM
Method: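 Apparent second-order rate constants for reaction with ozone at pH 7 were determined by multicompound competition kinetics. Mixtures of targets and competitors (10 ug/L each) were ozonated in 4 mM phosphate buffer, pH 7, with 80 mM tBuOH as OH-radical scavenger, at 22 ± 1 °C. Peak-area abatement was measured by HPLC-HRMS/MS and k was derived from ln-ln slopes against competitors with known k (R2 > 0.9, >= 10 points, slope 0.1-10). Experiments were run in triplicate on 3 days; the value is the mean over valid competitors ± SD.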

| Structure (SMILES) | apparent second-order rate constant |
| --- | --- |
| CNCCCC1(c2ccc(F)cc2)OCc2cc(C#N)ccc21 (centres undefined) [N-Desmethylcitalopram] | 532 ± 28 |
| CCC1OC(=O)C(C)C(OC2CC(C)(OC)C(O)C(C)O2)C(C)C(OC2OC(C)CC(NC)C2O)C(C)(OC)CC(C)C(=O)C(C)C(O)C1(C)O (centres undefined) [N-Desmethylclarithromycin] | 6500 ± 520 |
| CNCCC(c1ccccc1)c1ccccn1 (centres undefined) [N-Desmethylpheniramine] | 975 ± 49 |
| CC(C)c1nc(NS(C)(=O)=O)nc(-c2ccc(F)cc2)c1C=CC(O)CC(O)CC(=O)O (centres undefined) [N-Desmethylrosuvastatin] | 26000 ± 2800 |
| CNCC(c1ccc(OC)cc1)C1(O)CCCCC1 (centres undefined) [N-Desmethylvenlafaxine] | 993 ± 55 |
| N#Cc1ccc2c(c1)COC2(CCCN)c1ccc(F)cc1 (centres undefined) [N-Didesmethylcitalopram] | 34.3 ± 2.1 |
| CNCC(CC(=O)O)CC(C)C (centres undefined) [N-Methylpregabalin] | 143 ± 7.6 |
| COC(=O)C(C)c1ccc2cc(OC)ccc2c1 (centres undefined) [Naproxen methyl ester] | 278000 ± 25000 |
| COc1ccc2cc(C(C)C(=O)O)ccc2c1 (centres undefined) [Naproxen] | 500000 ± 46000 |
| Cc1ccnc2c1NC(=O)c1cccnc1N2C1CC1 [Nevirapine] | 86 ± 9 |
| CN1CCCC1c1cccnc1 (centres undefined) [Nicotine] | 332000 ± 30000 |
| COc1ccc2c3c1OC1C(O)C=CC4C(C2)NCCC341 (centres undefined) [Norcodeine] | 2.68e+06 ± 51000 |
| C#CCNC(C)Cc1ccccc1 (centres undefined) [Nordeprenyl] | 14000 ± 1200 |
| CC(N)C(O)c1ccccc1 (centres undefined) [Norephedrine] | 45.5 ± 2.3 |
| NCCC(Oc1ccc(C(F)(F)F)cc1)c1ccccc1 (centres undefined) [Norfluoxetine] | 42 ± 2.5 |
| NC1(c2ccccc2Cl)CCCCC1=O (centres undefined) [Norketamine] | 37.5 ± 2.5 |
| c1ccc2c(c1)Cc1ccccc1N1CCNCC21 (centres undefined) [Normianserin] | 570000 ± 48000 |
| c1cncc(C2CCCN2)c1 (centres undefined) [Nornicotine] | 6350 ± 520 |
| CCOC(=O)c1c(COCC(=O)O)nc(C)c(C(=O)OC)c1-c1ccccc1Cl [O-Des[2-aminoethyl]-O-carboxymethyl-dehydroamlodipine] | 0.401 ± 0.014 |
| Cc1cccc(C)c1NC(=O)CN1CCN(CC(O)CO)CC1 (centres undefined) [O-Desarylranolazine] | 570000 ± 48000 |
| CC(C(=O)O)c1ccc2cc(O)ccc2c1 (centres undefined) [O-Desmethylnaproxen] | 6.6e+06 ± 500000 |
| CN(C)CC(c1ccc(O)cc1)C1(O)CCCCC1 (centres undefined) [O-Desmethylvenlafaxine] | 2.09e+06 ± 170000 |
| CCC(CC)OC1C=C(C(=O)O)CC(N)C1NC(C)=O (centres undefined) [Oseltamivir acid] | 87000 ± 7700 |
| CCOC(=O)C1=CC(OC(CC)CC)C(NC(C)=O)C(N)C1 (centres undefined) [Oseltamivir] | 6130 ± 510 |
| O=c1nc2[nH][nH]cc-2c(=O)[nH]1 [Oxypurinol] | 4 ± 2.5 |

| Structure (SMILES) | apparent second-order rate constant |
| --- | --- |
| COc1ccnc(CS(=O)c2nc3ccc(OC(F)F)cc3[nH]2)c1OC (centres undefined) [Pantoprazole] | 108 ± 5.6 |
| CC(=O)Nc1ccc(O)c(SCC(NC(=O)CCC(N)C(=O)O)C(=O)NCC(=O)O)c1 (centres undefined) [Paracetamol-glutathione] | 1.1e+07 ± 2.4e+06 |
| CC(=O)Nc1ccc(OS(=O)(=O)O)cc1 [Paracetamol-sulfate] | 3.3 ± 0.3 |
| CC(=O)Nc1ccc(O)cc1 [Paracetamol] | 2.4e+06 ± 180000 |
| C#CC[N+](C)([O-])Cc1ccccc1 (centres undefined) [Pargyline-N-oxide] | 68 ± 8 |
| C[N+](C)([O-])CCC(c1ccccc1)c1ccccn1 (centres undefined) [Pheniramine-N-oxide] | 2.4 ± 0.3 |
| CN(C)CCC(c1ccccc1)c1ccccn1 (centres undefined) [Pheniramine] | 17600 ± 1700 |
| CNCC(O)c1cccc(OS(=O)(=O)O)c1 (centres undefined) [Phenylephrine-3-O-sulfate] | 2890 ± 220 |
| CNCC(O)c1cccc(O)c1 (centres undefined) [Phenylephrine] | 158000 ± 7000 |
| CC12C=CC(=O)C=C1CCC1C2C(O)CC2(C)C1CCC2(O)C(=O)CO (centres undefined) [Prednisolone] | 104 ± 5.6 |
| CC12C=CC(=O)C=C1CCC1C2C(=O)CC2(C)C1CCC2(O)C(=O)CO (centres undefined) [Prednisone] | 324 ± 15 |
| CC(C)CC(CN)CC(=O)O (centres undefined) [Pregabalin] | 15.6 ± 1.1 |
| CCC1(c2ccccc2)C(=O)NCNC1=O [Primidone] | 2.4 ± 0.3 |
| CC(C)NCC(O)COc1cccc2ccccc12 (centres undefined) [Propanolol] | 174000 ± 16000 |
| CNC(C)C(O)c1ccccc1 (centres undefined) [Pseudoephedrine] | 1370 ± 110 |
| CNC(=C[N+](=O)[O-])NCCSCc1ccc(C[N+](C)(C)[O-])o1 [Ranitidine-N-oxide] | 3.45e+06 ± 340000 |
| CNC(=C[N+](=O)[O-])NCC[S+]([O-])Cc1ccc(CN(C)C)o1 (centres undefined) [Ranitidine-S-oxide] | 1.75e+06 ± 70000 |
| CNC(=C[N+](=O)[O-])NCCSCc1ccc(CN(C)C)o1 [Ranitidine] | 6.4e+06 ± 500000 |
| O=C(O)C(c1ccccc1)C1CCCCN1 (centres undefined) [Ritalinic acid] | 139 ± 7.2 |
| CC(C)c1nc(N(C)S(C)(=O)=O)nc(-c2ccc(F)cc2)c1C=CC(O)CC(O)CC(=O)O (centres undefined) [Rosuvastatin] | 3250 ± 260 |
| C[C@H](C[C@@H](Cc1ccc(-c2ccccc2)cc1)NC(=O)CCC(=O)O)C(=O)O [Sacubitrilat (LBQ657)] | 16.7 ± 1.8 |
| O=C(O)CCC(=O)O [Succinic acid] | < 0.401 |
| Nc1ccc(S(=O)(=O)Nc2ncccn2)cc1 [Sulfadiazine] | 1.23e+06 ± 110000 |
| COc1cc(NS(=O)(=O)c2ccc(N)cc2)nc(OC)n1 [Sulfadimethoxine] | 1.53e+06 ± 100000 |
| Cc1cc(C)nc(NS(=O)(=O)c2ccc(N)cc2)n1 [Sulfamethazine] | 933000 ± 81000 |

| Structure (SMILES) | apparent second-order rate constant |
| --- | --- |
| Cc1cc(N(C2OC(C(=O)O)C(O)C(O)C2O)S(=O)(=O)c2ccc(N)cc2)no1 (centres undefined) [Sulfamethoxazole-N1-glucuronide] | 37000 ± 8000 |
| Nc1ccc(S(=O)(=O)Nc2ccccn2)cc1 [Sulfapyridine] | 537000 ± 180000 |
| Nc1ccc(S(=O)(=O)Nc2nccs2)cc1 [Sulfathiazole] | 9.8e+06 ± 700000 |
| CC[N+]1([O-])CCCC1CNC(=O)c1cc(S(N)(=O)=O)ccc1OC (centres undefined) [Sulpiride-N-oxide] | 41 ± 5 |
| CCN1CCCC1CNC(=O)c1cc(S(N)(=O)=O)ccc1OC (centres undefined) [Sulpiride] | 1.75e+06 ± 70000 |
| CCC(c1cccc(OS(=O)(=O)O)c1)C(C)CN(C)C (centres undefined) [Tapentadol-O-sulfate] | 1530 ± 150 |
| CCC(c1cccc(O)c1)C(C)CN(C)C (centres undefined) [Tapentadol] | 1.83e+06 ± 140000 |
| CCCc1nc2c(C)cc(-c3nc4ccccc4n3C)cc2n1Cc1ccc(-c2ccccc2C(=O)OC2OC(C(=O)O)C(O)C(O)C2O)cc1 (centres undefined) [Telmisartan-O-acyl-glucuronide] | 111 ± 5 |
| CCCc1nc2c(C)cc(-c3nc4ccccc4n3C)cc2n1Cc1ccc(-c2ccccc2C(=O)O)cc1 [Telmisartan] | 120 ± 6.1 |
| Cn1cnc2c1c(=O)[nH]c(=O)n2C [Theobromine] | 1200 ± 65 |
| Cn1c(=O)c2[nH]cnc2n(C)c1=O [Theophylline] | 885000 ± 78000 |
| Cc1ccc(C(=O)C(C)CN2CCCCC2)cc1 (centres undefined) [Tolperisone] | 17400 ± 1700 |
| CC(C)NC(=O)NS(=O)(=O)c1cnccc1Nc1cccc(C(=O)O)c1 [Torasemide carboxylic acid] | 214 ± 10 |
| Cc1cccc(Nc2ccncc2S(=O)(=O)NC(=O)NC(C)C)c1 [Torasemide] | 2990 ± 260 |
| O=c1n(CCCN2CCN(c3cccc(Cl)c3)CC2)nc2ccccn12 [Trazodone] | 1.31e+07 ± 1.6e+06 |
| CC(CN1c2ccccc2CCc2ccccc21)C[N+](C)(C)[O-] (centres undefined) [Trimipramine-N-oxide] | 4.8e+06 ± 300000 |
| CC(CN(C)C)CN1c2ccccc2CCc2ccccc21 (centres undefined) [Trimipramine] | 2e+06 ± 400000 |
| COc1ccc(C(C[N+](C)(C)[O-])C2(O)CCCCC2)cc1 (centres undefined) [Venlafaxine-N-oxide] | 168 ± 8.7 |
| COc1ccc(C(CN(C)C)C2(O)CCCCC2)cc1 (centres undefined) [Venlafaxine] | 3440 ± 260 |
| COc1ccc(CCN(C)CCCC(C#N)(c2ccc(OC)c(OC)c2)C(C)C)cc1OC (centres undefined) [Verapamil] | 64000 ± 14000 |
| Cc1ccc2nc(-c3ccc(C(=O)O)cc3)c(CC(=O)N(C)C)n2c1 [Zolpidem carboxylic acid] | 6.3e+06 ± 400000 |
| Cc1ccc(-c2nc3ccc(C)cn3c2CC(=O)N(C)C)cc1 [Zolpidem] | 1.28e+07 ± 900000 |
| CC(C)c1c(C(=O)Nc2ccccc2O)c(-c2ccccc2)c(-c2ccc(F)cc2)n1CCC(O)CC(O)CC(=O)O (centres undefined) [ortho-Hydroxyatorvastatin] | 1.8e+08 ± 4e+07 |
| CC(C)c1c(C(=O)Nc2ccc(O)cc2)c(-c2ccccc2)c(-c2ccc(F)cc2)n1CCC(O)CC(O)CC(=O)O (centres undefined) [para-Hydroxyatorvastatin] | 6.6e+07 ± 1.4e+07 |

— the supplement of paper PMC12490022
